Experimental findings from ChEMBL document CHEMBL4152281, “Synthesis, characterization and biological evaluation of tertiary sulfonamide derivatives of pyridyl-indole based heteroaryl chalcone as potential carbonic anhydrase IX inhibitors and anticancer agents” (Eur J Med Chem, 2018) are described below.

Each structure is given as a SMILES string. A value given as a limit tells only on which side of the number the result lay.

One assay addresses Carbonic anhydrase 9 (Homo sapiens, UniProt Q16790). The assay is described as follows: Inhibition of human carbonic anhydrase 9 expressed in Escherichia coli BL21 D3 strain using p-nitrophenyl acetate as substrate by UV/visible spectrophotometry.
In assay [1] the test system is MCF7. The assay is described as follows: Induction of apoptosis in human MCF7 cells assessed as early apoptotic cells at IC50 after 24 to 48 hrs by Annexin V-FITC/7-AAD dual staining based flow cytometry (reference value: 2.74%). Type of assay: functional. A general note: In flow cytometry, cells or beads pass a laser one at a time.
For assay [2], the system named is MCF7. In words: Induction of apoptosis in human MCF7 cells assessed as late apoptotic cells at IC50 after 24 to 48 hrs by Annexin V-FITC/7-AAD dual staining based flow cytometry (reference value: 1.14%). Type of assay: functional.
A further assay concerns HEK293. The assay is described as follows: Antiproliferative activity against HEK293 cells after 48 hrs by MTT assay. Type of assay: cell-based. Particulars: Homo sapiens, HEK293, 48 h; call rule not given here. In general terms: Tetrazolium assays rely on reduction of a dye to a coloured formazan, in cell work by metabolically active cells.
The subject of assay [3] is MCF7. The assay is described as follows: Antiproliferative activity against human MCF7 cells after 48 hrs by MTT assay. Type of assay: functional, cell-based.
For a further assay, the system named is HepG2. The assay is described as follows: Antiproliferative activity against human HepG2 cells after 48 hrs by MTT assay. Type of assay: functional, cell-based. Conditions: HepG2, 48 h.
The test system of assay [4] is MCF7. The assay is described as follows: Induction of apoptosis in human MCF7 cells assessed as viable cells at IC50 after 24 to 48 hrs by Annexin V-FITC/7-AAD dual staining based flow cytometry (reference value: 95.8%). The assay is classed as functional.
Assay [5] has as its system MCF7. In words: Induction of apoptosis in human MCF7 cells assessed as necrotic cells at IC50 after 24 to 48 hrs by Annexin V-FITC/7-AAD dual staining based flow cytometry (reference value: 0.20%). The assay is classed as functional.
A further assay deals with Carbonic anhydrase 2 (Homo sapiens, UniProt P00918). The assay is described as follows: Inhibition of human carbonic anhydrase 2 expressed in Escherichia coli BL21 D3 strain using p-nitrophenyl acetate as substrate by UV/visible spectrophotometry.
Where [6] appears, read: Homo sapiens, MCF7, 48 h, read-out: IC50.

As for `CC(C)(C)c1ccc(S(=O)(=O)n2cc(/C=C/C(=O)c3ccncc3)c3ccccc32)cc1`, the half-maximal inhibitory concentration (IC50) (commonly the concentration that inhibits the measured activity by half) was 0.15 µM at Carbonic anhydrase 9; above 150 µM in the assay with HEK293; 24 µM with MCF7 [3] (setting [6]); “Dose-dependent effect” with MCF7 [3] (mcf7); 27 µM in the assay on HepG2. Besides, the Activity is listed as 3.24% in the assay with MCF7 [1], 18.9% in the assay on MCF7 [2], 58.26% with MCF7 [4] and 19.6% in the assay on MCF7 [5].
In the case of `O=C(/C=C/c1cn(S(=O)(=O)c2ccc(Cl)cc2)c2ccccc12)c1ccncc1`, the half-maximal inhibitory concentration (IC50) on Carbonic anhydrase 9 was 14.4 µM; in the assay with HEK293, above 150 µM; in the assay on MCF7 [3] (setting [6]) it was 37.5 µM; in the assay on HepG2, 35.1 µM.
Regarding `CCCS(=O)(=O)n1cc(/C=C/C(=O)c2ccncc2)c2ccccc21`, the IC50 is 44.5 µM against Carbonic anhydrase 9; above 100 µM at Carbonic anhydrase 2; above 150 µM in the assay on HEK293; 52.4 µM in the assay with MCF7 [3] (setting [6]); 46.2 µM in the assay with HepG2.
Turning to `O=C(/C=C/c1cn(S(=O)(=O)c2ccccc2[N+](=O)[O-])c2ccccc12)c1ccncc1`, the concentration for half-maximal inhibition (IC50) at Carbonic anhydrase 9 is 57.3 µM; in the assay with HEK293 it was above 150 µM; in the assay on MCF7 [3] (setting [6]), 36.9 µM; in the assay with HepG2 it was 31.7 µM.
Taken in the same sequence, the figures for `COc1ccc(S(=O)(=O)n2cc(/C=C/C(=O)c3ccncc3)c3ccccc32)cc1` were 26.1 µM, above 150 µM, 65.8 µM and 26 µM.
As for `O=C(/C=C/c1cn(S(=O)(=O)c2ccc(Cl)cc2Cl)c2ccccc12)c1ccncc1`, the concentration for half-maximal inhibition (IC50) at Carbonic anhydrase 9 was 0.13 µM; in the assay on HEK293, above 150 µM; in the assay on MCF7 [3] (setting [6]), 12.2 µM; in the assay with MCF7 [3] (mcf7), “Dose-dependent effect”; in the assay with HepG2, 14.8 µM. Also, the Activity with MCF7 [1] is on record as 78.8%; with MCF7 [2] it was 10%; in the assay with MCF7 [4], 10.6%; with MCF7 [5], 0.53%.
For `O=C(/C=C/c1cn(S(=O)(=O)c2cccc3ccccc23)c2ccccc12)c1ccncc1`, the IC50 was 44.1 µM against Carbonic anhydrase 9, above 150 µM in the assay on HEK293, 58 µM in the assay with MCF7 [3] (setting [6]) and 62.9 µM with HepG2.
In the same order, the values of `Cc1ccc(S(=O)(=O)n2cc(/C=C/C(=O)c3ccncc3)c3ccccc32)cc1` are 29.9 µM, above 150 µM, 48.9 µM and 44.8 µM.
Turning to `O=C(/C=C/c1c[nH]c2ccccc12)c1ccncc1`, the IC50 is above 150 µM with HEK293, 45.3 µM in the assay on MCF7 [3] (setting [6]) and 49.3 µM in the assay on HepG2.
Consider `O=C(/C=C/c1cn(S(=O)(=O)c2cccc([N+](=O)[O-])c2)c2ccccc12)c1ccncc1`, for which the half-maximal inhibitory concentration (IC50) is 37.6 µM against Carbonic anhydrase 9, above 150 µM in the assay with HEK293, 36.3 µM with MCF7 [3] (setting [6]) and 42.6 µM in the assay with HepG2.
For the compound `O=C(/C=C/c1cn(S(=O)(=O)c2ccc([N+](=O)[O-])cc2)c2ccccc12)c1ccncc1`, half-maximal inhibition against Carbonic anhydrase 9 (IC50) required 0.15 µM.
For `COc1cccc2c1C(=O)c1c(O)c3c(c(O)c1C2=O)C[C@@](O)(C(=O)CO)C[C@@H]3O[C@H]1C[C@H](N)[C@H](O)[C@H](C)O1` [DOXORUBICIN], the IC50 with HEK293 is 143 µM; in the assay on HepG2 it was 18.7 µM.
